The source of these data is ChEMBL document CHEMBL1147201, “Structural requirements of HDAC inhibitors: SAHA analogs functionalized adjacent to the hydroxamic acid” (Bioorg Med Chem Lett, 2007).

This test concerns the target Histone deacetylase. As to the kind of experiment: Inhibition of HDAC by fluorescent assay. It counts as protein assay, Homo sapiens.

For the molecule `CCCC(CCCCCC(=O)Nc1ccccc1)C(=O)NO` (configuration not stated), the IC50 was 154 µM.
Turning to `CCCCC(CCCCCC(=O)Nc1ccccc1)C(=O)NO` (configuration not stated), the IC50 is 72 µM.
Molecule `C#CCC(CCCCCC(=O)Nc1ccccc1)C(=O)NO` (configuration not stated) yielded an IC50 of 87 µM.
Regarding `CCC(CCCCCC(=O)Nc1ccccc1)C(=O)NO` (configuration not stated), the IC50 came out at 449 µM.
For the molecule `CC(CCCCCC(=O)Nc1ccccc1)C(=O)NO` (configuration not stated), the IC50 turned out to be 134 µM.
As to `O=C(CCCCCC(Cc1ccccc1)C(=O)NO)Nc1ccccc1` (configuration not stated), the IC50 amounted to 226 µM.
In the case of `C=CCC(CCCCCC(=O)Nc1ccccc1)C(=O)NO` (configuration not stated) it was 144 µM.

The IC50 is the concentration needed to halve the response being measured. Read a low IC50 as greater potency in that assay.
